In the supplement of paper PMC11451515:

Test system: NOMO1
Assay: cell viability relative to DMSO control; higher = less cytotoxic
Conditions: 48 h
How it was run: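 Viability values are per-plate percentages of DMSO wells, with background from cell-free wells. Library compounds in DMSO were pin-dosed, in an 11-point threefold series from 47 μM to 0.79 nM, onto NOMO1 or SEM (500 cells/well) or P12-Ichikawa (1000 cells/well) leukemia cells in 1536-well plates (5 μl). Those cells had been adapted for at least four passages in each medium, and CellTiter-Glo One luminescence was read after 48 h at 37°C.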

[1] = HPLM + 10% dialyzed FBS, 0.000781 µM
[2] = HPLM + 10% dialyzed FBS, 0.00234 µM
[3] = HPLM + 10% dialyzed FBS, 0.00702 µM
[4] = HPLM + 10% dialyzed FBS, 0.0211 µM
[5] = HPLM + 10% dialyzed FBS, 0.0632 µM
[6] = HPLM + 10% dialyzed FBS, 0.19 µM
[7] = HPLM + 10% dialyzed FBS, 0.569 µM
[8] = HPLM + 10% dialyzed FBS, 1.71 µM
[9] = HPLM + 10% dialyzed FBS, 5.12 µM
[10] = HPLM + 10% dialyzed FBS, 15.4 µM
[11] = HPLM + 10% dialyzed FBS, 46.1 µM
[12] = RPMI 5 mM glucose + 10% FBS, 0.000781 µM
[13] = RPMI 5 mM glucose + 10% FBS, 0.00234 µM
[14] = RPMI 5 mM glucose + 10% FBS, 0.00702 µM
[15] = RPMI 5 mM glucose + 10% FBS, 0.0211 µM
[16] = RPMI 5 mM glucose + 10% FBS, 0.0632 µM
[17] = RPMI 5 mM glucose + 10% FBS, 0.19 µM
[18] = RPMI 5 mM glucose + 10% FBS, 0.569 µM
[19] = RPMI 5 mM glucose + 10% FBS, 1.71 µM
[20] = RPMI 5 mM glucose + 10% FBS, 5.12 µM
[21] = RPMI 5 mM glucose + 10% FBS, 15.4 µM
[22] = RPMI 5 mM glucose + 10% FBS, 46.1 µM
[23] = RPMI 5 mM glucose + 10% dialyzed FBS, 0.000781 µM
[24] = RPMI 5 mM glucose + 10% dialyzed FBS, 0.00234 µM
[25] = RPMI 5 mM glucose + 10% dialyzed FBS, 0.00702 µM
[26] = RPMI 5 mM glucose + 10% dialyzed FBS, 0.0211 µM
[27] = RPMI 5 mM glucose + 10% dialyzed FBS, 0.0632 µM
[28] = RPMI 5 mM glucose + 10% dialyzed FBS, 0.19 µM
[29] = RPMI 5 mM glucose + 10% dialyzed FBS, 0.569 µM
[30] = RPMI 5 mM glucose + 10% dialyzed FBS, 1.71 µM
[31] = RPMI 5 mM glucose + 10% dialyzed FBS, 5.12 µM
[32] = RPMI 5 mM glucose + 10% dialyzed FBS, 15.4 µM
[33] = RPMI 5 mM glucose + 10% dialyzed FBS, 46.1 µM

Row | SMILES | cell viability [1] [%] | cell viability [2] [%] | cell viability [3] [%] | cell viability [4] [%] | cell viability [5] [%] | cell viability [6] [%] | cell viability [7] [%] | cell viability [8] [%] | cell viability [9] [%] | cell viability [10] [%] | cell viability [11] [%] | cell viability [12] [%] | cell viability [13] [%] | cell viability [14] [%] | cell viability [15] [%] | cell viability [16] [%] | cell viability [17] [%] | cell viability [18] [%] | cell viability [19] [%] | cell viability [20] [%] | cell viability [21] [%] | cell viability [22] [%] | cell viability [23] [%] | cell viability [24] [%] | cell viability [25] [%] | cell viability [26] [%] | cell viability [27] [%] | cell viability [28] [%] | cell viability [29] [%] | cell viability [30] [%] | cell viability [31] [%] | cell viability [32] [%] | cell viability [33] [%]
1 | N[C@@H](C(=O)N[C@H]1[C@H]2SC\C(=C(/N2C1=O)C(O)=O)Cl)C3=CC=CC=C3 | 123 | 124 | 125 | 136 | 150 | 119 | 126 | 108 | 134 | 145 | 135 |  |  |  |  |  |  |  |  |  |  |  |  |  |  |  |  |  |  |  |  |  | 
2 | NC(=O)c1ccc(-c2nc(-c3ccc4c(c3)OCCO4)c(-c3ccccn3)[nH]2)cc1 |  |  |  |  |  |  |  |  |  |  |  | 105 | 104 | 104 | 106 | 118 | 119 | 121 | 114 | 122 | 107 | 114 | 121 | 119 | 119 | 118 | 134 | 113 | 131 | 125 | 114 | 116 | 119
3 | CN(C)Cc1ccc(-c2nc3cccc4c3n2CCNC4=O)cc1 | 91.1 | 99.5 | 115 | 116 | 124 | 107 | 109 | 121 | 129 | 112 | 99.4 | 87.2 | 108 | 94.7 | 103 | 98.3 | 102 | 111 | 106 | 97.2 | 103 | 104 | 98 | 102 | 90.8 | 110 | 115 | 119 | 110 | 116 | 126 | 124 | 118
4 | O=C1\C=C(/OC2=C1C=CC=C2C3=CC=CC=C3)N4CCOCC4 | 95.4 | 99.2 | 99.9 | 90.4 | 91.9 | 90.4 | 86.7 | 63.9 | 82.5 | 66.5 | 75.6 | 82.4 | 88 | 89.1 | 84.7 | 79.9 | 83 | 81.7 | 77 | 82.4 | 80.9 | 76 | 75.2 | 86.5 | 81.7 | 83.9 | 87.4 | 79.7 | 82.3 | 66.1 | 89.8 | 79.1 | 88.1
5 | COc1cc2c(N3CCN(C(=O)Nc4ccc(OC(C)C)cc4)CC3)ncnc2cc1OCCCN1CCCCC1 | 68.3 | 89.2 | 85.9 | 88.7 | 83.3 | 87.7 | 112 | 94.2 | 95.2 | 47.4 | 41.2 | 73.1 | 71.7 | 84.7 | 74.5 | 79.4 | 83.8 | 86.3 | 77.5 | 75.4 | 40 | 67.3 | 79.3 | 80.9 | 75.4 | 85.8 | 80.9 | 74 | 89.7 | 93.7 | 85.5 | 43.5 | 55.3
6 | CC(C)C[C@H](CN)CC(=O)O | 105 | 108 | 122 | 109 | 98.1 | 96.1 | 108 | 117 | 101 | 79.6 | 91.7 | 90.3 | 95.6 | 102 | 97.8 | 87.9 | 89.9 | 99.3 | 93.6 | 91.5 | 90.3 | 83.8 | 97.3 | 100 | 105 | 106 | 95.8 | 97.6 | 99.3 | 89.3 | 99.2 | 92.1 | 90
7 | COc1cc2nccc(Oc3ccc(NC(=O)Nc4ccc(F)cc4F)c(F)c3)c2cc1OC | 101 | 95.8 | 94.1 | 84.6 | 89.9 | 86 | 90.3 | 83.6 | 75 | 78.7 | 72.2 | 83 | 95.8 | 79.6 | 90.5 | 96.2 | 88.1 | 87.5 | 90.9 | 83 | 80.1 | 75.7 | 96.6 | 96.1 | 103 | 91.9 | 94.5 | 90.1 | 81.7 | 102 | 80.7 | 83.2 | 54.6
8 | Cc1ccc(NC(=O)c2ccc(CN3CCN(C)CC3)cc2)cc1Nc1nccc(-c2cccnc2)n1 | 95.2 | 105 | 114 | 116 | 110 | 116 | 105 | 122 | 104 | 95.4 | 109 | 90.6 | 103 | 92.3 | 112 | 120 | 99.6 | 114 | 111 | 104 | 103 | 103 | 96.2 | 100 | 111 | 101 | 105 | 103 | 110 | 94 | 115 | 104 | 117
9 | C[C@@H]1CC[C@@]2(OC1)O[C@H]3C[C@H]4[C@@H]5C/C=C6/C[C@H](CC[C@]6(C)[C@H]5CC[C@]4(C)[C@H]3[C@@H]2C)O[C@@H]7O[C@H](CO)[C@@H](O[C@@H]8O[C@@H](C)[C@H](O)[C@@H](O)[C@H]8O)[C@H](O)[C@H]7O[C@@H]9O[C@@H](C)[C@H](O)[C@@H](O)[C@H]9O | 108 | 122 | 122 | 127 | 142 | 136 | 141 | 152 | 132 | 124 | 8.71 |  |  |  |  |  |  |  |  |  |  |  |  |  |  |  |  |  |  |  |  |  | 
10 | O=C1NC(=O)[C@@H](c2cn3c4c(cccc24)CCC3)[C@@H]1c1c[nH]c2ccccc12 | 95.9 | 99.3 | 98.2 | 104 | 107 | 89.3 | 89.8 | 62.9 | 29.7 | 36.4 | 20.6 | 104 | 116 | 115 | 99.5 | 108 | 104 | 110 | 68.6 | 21.1 | 20.8 | 20.5 | 93.1 | 91.3 | 96.2 | 98.7 | 106 | 98.3 | 114 | 80 | 22.4 | 28.5 | 29
11 | C=C(C)[C@@H]1CC[C@]2(C)CC[C@]3(C)[C@H](CC[C@@H]4[C@@]5(C)CC[C@H](O)C(C)(C)[C@@H]5CC[C@]43C)[C@@H]12 | 90.7 | 95.3 | 104 | 123 | 115 | 127 | 109 | 119 | 134 | 117 | 131 | 106 | 111 | 114 | 126 | 121 | 127 | 121 | 115 | 124 | 130 | 115 | 113 | 106 | 111 | 106 | 100 | 113 | 113 | 123 | 123 | 124 | 115
12 | Clc1cccc(-c2nnnn2Cc2cccnc2)c1Cl | 82.8 | 92.7 | 96.4 | 99.9 | 92.4 | 93.1 | 79 | 57.2 | 49.8 | 48.6 | 33.1 | 80 | 87.1 | 89.5 | 84.1 | 91.5 | 89 | 90.5 | 62.9 | 55.8 | 57.2 | 48.5 | 81.5 | 83.6 | 91.1 | 93.6 | 83.7 | 83.2 | 83.9 | 52.5 | 59.1 | 58 | 47.8
13 | CNC(=O)[C@H](Cc1ccccc1)NC(=O)[C@H](CC(C)C)[C@H](CSc1cccs1)C(=O)NO | 79.9 | 100 | 91.7 | 101 | 86.8 | 93.7 | 97.8 | 94.7 | 89.4 | 77.8 | 79.7 | 85.6 | 76.9 | 73.4 | 81.1 | 93.5 | 87.7 | 87.2 | 95.4 | 75 | 78.3 | 91.8 | 78.9 | 89 | 81.5 | 96.7 | 87.6 | 89.1 | 101 | 92.8 | 83 | 70.8 | 81.3
14 | CC(C)(C)/[N+]([O-])=C/c1ccc([S+](=O)([O-])[O][Na])cc1[S+](=O)([O-])[O][Na] | 97.5 | 102 | 111 | 115 | 121 | 132 | 121 | 128 | 129 | 119 | 127 | 105 | 118 | 119 | 126 | 125 | 118 | 125 | 128 | 111 | 138 | 133 | 94 | 102 | 111 | 114 | 111 | 120 | 127 | 109 | 109 | 123 | 120
15 | COc1cc2nccc(Oc3ccc(NC(=O)C4(C(=O)Nc5ccc(F)cc5)CC4)cc3)c2cc1OC | 113 | 114 | 112 | 116 | 94.2 | 101 | 116 | 104 | 93.7 | 69.8 | 32.3 | 95.6 | 124 | 101 | 114 | 103 | 104 | 95.1 | 107 | 96.2 | 102 | 64.8 | 102 | 99.2 | 110 | 107 | 111 | 98.2 | 109 | 98 | 95.5 | 71.7 | 47.1
16 | Cc1nc(Nc2ncc(C(=O)Nc3c(C)cccc3Cl)s2)cc(N2CCN(CCO)CC2)n1 | 90.9 | 104 | 102 | 99.9 | 107 | 107 | 113 | 95.2 | 83.9 | 85.6 | 71.9 | 104 | 102 | 106 | 101 | 105 | 105 | 117 | 110 | 100 | 89.3 | 80.3 | 101 | 94.5 | 102 | 92.1 | 105 | 94.3 | 106 | 96.2 | 81 | 75.9 | 75.9
